Results: ChEMBL document CHEMBL2163300, “Mitogen-activated protein kinase-activated protein kinase 2 (MAPKAP-K2) as an antiinflammatory target: discovery and in vivo activity of selective pyrazolo[1,5-a]pyrimidine inhibitors using a focused library and structure-based optimization approach” (J Med Chem, 2012)
pIC50, pKi: −log10 of the molar value. ≈ marks a conversion by molar mass, not a printed value.

Experiments:
Serum [1] = experiment: Drug level in C57BL/6 mouse serum at 100 mg/kg, po; type: ADME, organism-based; design: dose 100 mg/kg, route oral; conditions: in vivo, read-out: Drug uptake
Serum [2] = experiment: Drug level in C57BL/6 mouse serum at 60 mg/kg, po; type: ADME, organism-based; design: dose 60 mg/kg, route oral; conditions: in vivo, read-out: Drug uptake
Serum [3] = experiment: Drug level in C57BL/6 mouse serum at 30 mg/kg, po; type: ADME, organism-based; design: dose 30 mg/kg, route oral; conditions: in vivo, read-out: Drug uptake
Serum [4] = experiment: Drug level in C57BL/6 mouse serum at 10 mg/kg, po; type: ADME, organism-based; design: dose 10 mg/kg, route oral; conditions: in vivo, read-out: Drug uptake
Serum [5] = experiment: Drug uptake in po dosed C57BL/6 mouse serum; type: ADME, organism-based; conditions: in vivo
Mus musculus [6] = experiment: Antiinflammatory activity in po dosed C57BL/6 mouse assessed as decrease in LPS-induced serum TNFalpha level administered 30 mins prior to LPS challenge measured 60 mins post LPS challenge by ELISA; type: functional, organism-based
Mus musculus [7] = experiment: Antiinflammatory activity in C57BL/6 mouse assessed as LPS-induced serum TNFalpha level at 100 mg/kg, po administered 30 mins prior to LPS challenge measured 60 mins post LPS challenge by ELISA relative to vehicle-treated control; type: functional
[8] = Total clearance in mouse at 1 mg/kg, iv; type: ADME, organism-based; design: dose 1 mg/kg, route intravenous; conditions: in vivo
[9] = Half life in mouse at 1 mg/kg, iv; type: ADME, organism-based; design: dose 1 mg/kg, route intravenous; conditions: in vivo
[10] = AUC (0 to 24 hrs) in mouse at 1 mg/kg, po; type: ADME, organism-based; design: time < 24 hr, dose 1 mg/kg, route oral; conditions: plasma
[11] = Oral bioavailability in mouse at 1 mg/kg; type: ADME, organism-based; conditions: in vivo
[12] = molecular target: MAP kinase-activated protein kinase 2 (Mus musculus, UniProt P49138); experiment: Inhibition of MAPKAP-K2 in mouse whole blood assessed as inhibition of LPS-induced TNFalpha production by ELISA
THP-1 = experiment: Cytotoxicity against human THP1 cells assessed as cell viability by MTS assay; type: cell-based
[13] = Plasma protein binding in mouse; type: ADME, cell-free; conditions: read-out: PPB (converted)
[14] = Apparent permeability across apical to basolateral side in human Caco2 cells; type: ADME, cell-based; conditions: Caco-2
[15] = Intrinsic clearance in mouse liver microsomes; type: ADME, Microsome; conditions: read-out: CLH
[16] = Solubility of the compound at pH 7.4; type: physicochemical; conditions: buffer
[17] = Intrinsic clearance in human liver microsomes; type: ADME, Microsome; conditions: read-out: CLH
[18] = molecular target: Ribosomal protein S6 kinase alpha-3 (Homo sapiens) (UniProt P51812); experiment: Inhibition of human RSK2 at 10 uM
[19] = molecular target: MAP kinase-activated protein kinase 5 (Homo sapiens) (UniProt Q8IW41); experiment: Inhibition of human PRAK at 10 uM
[20] = molecular target: Protein kinase C gamma type (Homo sapiens) (UniProt P05129); experiment: Inhibition of human PKCgamma at 10 uM
[21] = molecular target: T1, Rho-associated protein kinase 2 (Homo sapiens, UniProt O75116); experiment: Inhibition of human ROCK2 at 10 uM
Homo sapiens = species: Homo sapiens; experiment: Inhibition of human PKA at 10 uM
[22] = molecular target: Protein kinase C alpha type (Homo sapiens) (UniProt P17252); experiment: Inhibition of human PKCalpha at 10 uM
[23] = molecular target: Ribosomal protein S6 kinase beta-1 (Homo sapiens) (UniProt P23443); experiment: Inhibition of human p70S6K at 10 uM
[24] = molecular target: 3-phosphoinositide-dependent protein kinase 1 (Homo sapiens) (UniProt O15530); experiment: Inhibition of human PDK1 at 10 uM
[25] = molecular target: RAC-alpha serine/threonine-protein kinase (Homo sapiens) (UniProt P31749); experiment: Inhibition of human PKBalpha at 10 uM
[26] = molecular target: Serine/threonine-protein kinase Chk1 (Homo sapiens) (UniProt O14757); experiment: Inhibition of human CHK1 at 10 uM
Rattus norvegicus [27] = species: Rattus norvegicus; experiment: Inhibition of rat CAMK2 at 10 uM
[28] = molecular target: Cyclin-dependent kinase 1/cyclin B1 (Homo sapiens) (UniProt P06493+P14635); experiment: Inhibition of human Cdk1/cyclin B at 10 uM; type: protein-complex assay
[29] = molecular target: Mitogen-activated protein kinase 1 (Homo sapiens) (UniProt P28482); experiment: Inhibition of human ERK2 at 10 uM
Sequence of Mitogen-activated protein kinase 1 (Homo sapiens) (P28482 whole entry): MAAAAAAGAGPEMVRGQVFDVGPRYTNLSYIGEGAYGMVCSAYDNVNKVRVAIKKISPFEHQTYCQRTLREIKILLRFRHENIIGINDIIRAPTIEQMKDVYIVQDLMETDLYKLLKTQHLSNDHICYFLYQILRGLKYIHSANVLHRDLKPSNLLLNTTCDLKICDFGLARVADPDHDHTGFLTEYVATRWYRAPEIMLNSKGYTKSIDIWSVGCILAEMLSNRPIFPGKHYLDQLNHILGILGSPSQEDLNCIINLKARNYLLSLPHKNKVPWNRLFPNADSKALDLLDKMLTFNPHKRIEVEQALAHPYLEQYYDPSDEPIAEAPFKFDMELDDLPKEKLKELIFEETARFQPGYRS

[30] = molecular target: Inhibitor of nuclear factor kappa-B kinase subunit beta (Homo sapiens) (UniProt O14920); experiment: Inhibition of human IKKbeta at 10 uM
[31] = molecular target: Mitogen-activated protein kinase 8 (Homo sapiens) (UniProt P45983); experiment: Inhibition of human JNK1alpha1 at 10 uM
[32] = molecular target: T2, Mitogen-activated protein kinase 14 (Homo sapiens, UniProt Q16539); experiment: Inhibition of human p38alpha at 10 uM
T2 sequence (Q16539 whole entry): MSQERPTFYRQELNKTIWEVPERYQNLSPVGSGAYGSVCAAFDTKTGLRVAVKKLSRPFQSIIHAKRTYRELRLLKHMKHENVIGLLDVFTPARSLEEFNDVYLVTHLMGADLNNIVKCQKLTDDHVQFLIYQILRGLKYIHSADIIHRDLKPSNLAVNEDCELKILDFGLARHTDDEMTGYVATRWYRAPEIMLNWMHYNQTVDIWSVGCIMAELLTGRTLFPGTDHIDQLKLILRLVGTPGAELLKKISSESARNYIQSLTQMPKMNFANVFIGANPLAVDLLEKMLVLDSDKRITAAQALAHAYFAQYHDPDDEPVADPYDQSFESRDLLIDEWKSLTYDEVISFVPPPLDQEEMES

[33] = molecular target: Mitogen-activated protein kinase 12 (Homo sapiens) (UniProt P53778); experiment: Inhibition of human p38gamma at 10 uM
[34] = molecular target: Mitogen-activated protein kinase 13 (Homo sapiens) (UniProt O15264); experiment: Inhibition of human p38delta at 10 uM
[35] = molecular target: Dual specificity mitogen-activated protein kinase kinase 4 (Mus musculus) (UniProt P47809); experiment: Inhibition of mouse MKK4 at 10 uM
Sequence of Dual specificity mitogen-activated protein kinase kinase 4 (Mus musculus) (P47809 whole entry): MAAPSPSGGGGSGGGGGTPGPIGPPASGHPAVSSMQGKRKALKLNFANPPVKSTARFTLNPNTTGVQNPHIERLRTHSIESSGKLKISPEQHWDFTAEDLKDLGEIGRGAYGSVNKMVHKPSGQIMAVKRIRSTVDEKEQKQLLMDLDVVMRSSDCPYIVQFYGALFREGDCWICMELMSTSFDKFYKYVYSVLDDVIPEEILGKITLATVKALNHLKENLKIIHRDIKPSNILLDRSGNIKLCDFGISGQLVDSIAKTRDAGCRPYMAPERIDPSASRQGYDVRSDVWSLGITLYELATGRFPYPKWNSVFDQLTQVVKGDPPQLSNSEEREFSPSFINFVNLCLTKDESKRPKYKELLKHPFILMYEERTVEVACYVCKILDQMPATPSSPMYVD

[36] = molecular target: Dual specificity mitogen-activated protein kinase kinase 6 (Homo sapiens) (UniProt P52564); experiment: Inhibition of human MKK6 at 10 uM
[37] = molecular target: Dual specificity mitogen-activated protein kinase kinase 7 (Homo sapiens) (UniProt O14733); experiment: Inhibition of human MKK7beta at 10 uM
Sequence of Dual specificity mitogen-activated protein kinase kinase 7 (Homo sapiens) (O14733 whole entry): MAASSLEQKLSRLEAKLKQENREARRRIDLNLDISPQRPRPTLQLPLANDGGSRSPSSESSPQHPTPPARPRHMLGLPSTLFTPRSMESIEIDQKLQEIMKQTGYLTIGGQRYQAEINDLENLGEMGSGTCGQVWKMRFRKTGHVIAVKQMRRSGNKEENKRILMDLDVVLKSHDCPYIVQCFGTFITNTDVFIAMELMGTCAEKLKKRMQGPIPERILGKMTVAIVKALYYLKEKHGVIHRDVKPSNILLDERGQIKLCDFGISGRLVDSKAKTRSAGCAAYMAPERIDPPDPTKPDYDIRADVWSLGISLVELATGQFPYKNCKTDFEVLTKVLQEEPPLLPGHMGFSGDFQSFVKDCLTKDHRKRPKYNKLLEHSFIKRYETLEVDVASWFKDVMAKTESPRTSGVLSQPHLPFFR

[38] = molecular target: Dual specificity mitogen-activated protein kinase kinase 1 (Homo sapiens) (UniProt Q02750); experiment: Inhibition of human MEK1 at 10 uM
Sequence of Dual specificity mitogen-activated protein kinase kinase 1 (Homo sapiens) (Q02750 whole entry): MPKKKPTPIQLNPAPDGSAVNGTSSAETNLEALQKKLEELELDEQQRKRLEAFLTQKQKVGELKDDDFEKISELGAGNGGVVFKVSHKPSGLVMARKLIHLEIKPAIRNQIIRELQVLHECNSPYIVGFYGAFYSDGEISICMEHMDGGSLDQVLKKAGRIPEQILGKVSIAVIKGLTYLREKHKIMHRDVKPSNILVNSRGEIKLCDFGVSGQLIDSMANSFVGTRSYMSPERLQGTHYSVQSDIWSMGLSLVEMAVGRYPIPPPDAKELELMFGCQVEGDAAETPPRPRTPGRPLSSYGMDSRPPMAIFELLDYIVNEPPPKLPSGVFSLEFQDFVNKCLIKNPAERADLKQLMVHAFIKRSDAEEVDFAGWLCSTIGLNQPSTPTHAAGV

Rattus norvegicus [39] = species: Rattus norvegicus; experiment: Inhibition of rat AMPK at 10 uM
[40] = molecular target: Receptor-type tyrosine-protein kinase FLT3 (Homo sapiens) (UniProt P36888); conditions: 10 uM
Sequence of Receptor-type tyrosine-protein kinase FLT3 (Homo sapiens) (P36888 whole entry): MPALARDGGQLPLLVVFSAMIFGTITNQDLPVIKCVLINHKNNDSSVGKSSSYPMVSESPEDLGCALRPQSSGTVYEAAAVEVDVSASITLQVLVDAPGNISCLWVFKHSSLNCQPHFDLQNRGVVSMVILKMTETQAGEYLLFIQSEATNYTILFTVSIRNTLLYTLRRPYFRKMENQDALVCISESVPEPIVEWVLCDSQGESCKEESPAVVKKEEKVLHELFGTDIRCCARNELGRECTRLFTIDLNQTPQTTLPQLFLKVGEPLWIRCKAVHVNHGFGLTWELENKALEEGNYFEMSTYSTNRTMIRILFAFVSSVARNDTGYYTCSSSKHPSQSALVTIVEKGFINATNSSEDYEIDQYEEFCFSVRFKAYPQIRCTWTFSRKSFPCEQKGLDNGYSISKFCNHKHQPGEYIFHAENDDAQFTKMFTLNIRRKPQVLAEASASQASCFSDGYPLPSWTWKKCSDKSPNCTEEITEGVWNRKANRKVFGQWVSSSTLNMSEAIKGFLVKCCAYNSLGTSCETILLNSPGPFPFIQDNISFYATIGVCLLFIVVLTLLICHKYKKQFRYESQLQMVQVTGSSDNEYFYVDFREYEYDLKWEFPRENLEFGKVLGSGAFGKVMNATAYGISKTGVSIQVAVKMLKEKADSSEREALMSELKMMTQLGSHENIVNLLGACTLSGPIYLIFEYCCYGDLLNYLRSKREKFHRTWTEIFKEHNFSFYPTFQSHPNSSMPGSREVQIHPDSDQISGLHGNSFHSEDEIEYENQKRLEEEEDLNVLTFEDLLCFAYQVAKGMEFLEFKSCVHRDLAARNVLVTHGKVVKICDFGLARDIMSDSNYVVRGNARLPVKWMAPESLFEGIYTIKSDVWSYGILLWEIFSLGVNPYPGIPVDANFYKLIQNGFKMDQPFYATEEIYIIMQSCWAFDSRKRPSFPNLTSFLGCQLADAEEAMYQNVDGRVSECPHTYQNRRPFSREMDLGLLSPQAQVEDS
Description: Inhibition of human FLT3 at 10 uM

[41] = molecular target: Tyrosine-protein kinase Fes/Fps (Homo sapiens) (UniProt P07332); conditions: 10 uM
Description: Inhibition of human FES at 10 uM

[42] = molecular target: Tyrosine-protein kinase Yes (Homo sapiens) (UniProt P07947); conditions: 10 uM
Sequence of Tyrosine-protein kinase Yes (Homo sapiens) (P07947 2-543 limits assumed): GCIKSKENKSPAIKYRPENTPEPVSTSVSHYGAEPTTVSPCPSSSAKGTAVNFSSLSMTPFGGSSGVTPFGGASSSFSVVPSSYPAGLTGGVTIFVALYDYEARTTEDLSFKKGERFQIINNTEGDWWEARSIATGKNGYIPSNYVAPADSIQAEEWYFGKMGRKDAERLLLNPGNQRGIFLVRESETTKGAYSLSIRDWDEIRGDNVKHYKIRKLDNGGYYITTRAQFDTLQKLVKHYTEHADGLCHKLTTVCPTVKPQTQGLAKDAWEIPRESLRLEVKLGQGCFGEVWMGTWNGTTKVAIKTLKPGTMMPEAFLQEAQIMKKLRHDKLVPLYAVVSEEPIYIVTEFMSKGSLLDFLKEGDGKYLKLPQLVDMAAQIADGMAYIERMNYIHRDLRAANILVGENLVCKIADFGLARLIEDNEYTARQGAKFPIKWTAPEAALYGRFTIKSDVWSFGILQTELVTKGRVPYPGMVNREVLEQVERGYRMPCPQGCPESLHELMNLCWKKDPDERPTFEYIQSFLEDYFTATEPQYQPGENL
Description: Inhibition of human YES at 10 uM

[43] = molecular target: T3, MAP kinase-activated protein kinase 2 (Homo sapiens, UniProt P49137); experiment: Competitive inhibition of MAPKAP-K2 using KKLNRTLSVA as substrate and [33P]-gamma-ATP by Lineweaver-Burke plot analysis
T3 sequence (P49137 whole entry): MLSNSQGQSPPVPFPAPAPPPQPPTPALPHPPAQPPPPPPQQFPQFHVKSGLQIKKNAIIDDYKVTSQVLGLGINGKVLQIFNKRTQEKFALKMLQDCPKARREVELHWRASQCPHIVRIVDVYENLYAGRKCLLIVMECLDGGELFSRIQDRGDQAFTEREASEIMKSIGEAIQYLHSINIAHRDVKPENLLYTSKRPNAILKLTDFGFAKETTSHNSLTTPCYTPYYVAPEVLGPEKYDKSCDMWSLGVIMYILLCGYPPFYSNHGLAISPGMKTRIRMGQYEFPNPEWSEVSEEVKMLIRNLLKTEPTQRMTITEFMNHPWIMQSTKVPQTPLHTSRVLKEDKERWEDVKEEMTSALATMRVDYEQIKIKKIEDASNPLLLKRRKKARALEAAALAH

[44] = molecular target: Mitogen-activated protein kinase 9 (Homo sapiens, UniProt P45984); experiment: Inhibition of JNK2
Sequence of Mitogen-activated protein kinase 9 (P45984 whole entry): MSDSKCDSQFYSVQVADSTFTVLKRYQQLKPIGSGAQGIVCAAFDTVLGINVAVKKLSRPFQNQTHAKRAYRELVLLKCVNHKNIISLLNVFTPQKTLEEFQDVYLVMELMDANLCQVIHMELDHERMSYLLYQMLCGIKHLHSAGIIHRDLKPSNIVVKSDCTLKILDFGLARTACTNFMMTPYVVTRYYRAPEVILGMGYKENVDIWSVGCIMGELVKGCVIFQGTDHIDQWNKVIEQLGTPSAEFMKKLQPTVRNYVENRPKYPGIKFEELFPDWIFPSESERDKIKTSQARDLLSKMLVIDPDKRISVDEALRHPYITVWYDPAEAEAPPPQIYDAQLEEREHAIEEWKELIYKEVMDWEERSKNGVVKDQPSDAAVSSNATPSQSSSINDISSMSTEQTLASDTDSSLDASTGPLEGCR

[45] = molecular target: T1, Rho-associated protein kinase 2; experiment: Inhibition of ROK2
[46] = molecular target: MAP kinase-activated protein kinase 5 (Homo sapiens, UniProt Q8IW41); experiment: Inhibition of PRAK
[47] = molecular target: T2, Mitogen-activated protein kinase 14; experiment: Inhibition of P38alpha
[48] = molecular target: Tyrosine-protein kinase Lck (Homo sapiens, UniProt P06239); experiment: Inhibition of LCK
[49] = Inhibition of PHK
[50] = molecular target: Glycogen synthase kinase-3 beta (Homo sapiens, UniProt P49841); experiment: Inhibition of GSK3beta
[51] = molecular target: T3, MAP kinase-activated protein kinase 2; experiment: Inhibition of MAPKAP-K2 using KKLNRTLSVA as substrate and [33P]-gamma-ATP after 30 mins by liquid scintillation counter
[52] = molecular target: Cyclin-dependent kinase 2 (Homo sapiens, UniProt P24941)
Description: Inhibition of CDK2 after 60 mins using [33P]-gamma-ATP by liquid scintillation counter

`CCOc1ccc(Nc2c(C)c(N[C@H]3CCCNC3)nc3ccnn23)cc1` gave a concentration (Serum [1]) of 10 µM, a concentration (Serum [2]) of 8 µM and a concentration (Serum [3]) of 5 µM. The concentration (Serum [4]) was 2 µM, the Drug uptake (Serum [5]) was “Dose-dependent effect” and the Activity (Mus musculus [6]) was “Dose-dependent effect”. For the same molecule, the Activity (Mus musculus [7]) was 14%, the clearance [8] was 68.3 mL/min/kg and the half-life [9] was 2.2 h. For the same molecule, the AUC(0-t) at 24 h [10] was 0.438 µM·h, the bioavailability [11] was 66% and the pIC50 [12] was 5.30. For the same molecule, the pIC50 (THP-1) was 4.13, the fraction unbound [13] was 0.114 and the Papp A→B [14] was 28.3 ×10⁻⁶ cm/s. The microsomal CLint [15] was 11 µL/min/mg, the solubility [16] was 70 µg/mL (≈ 191 µM) and the microsomal CLint [17] was under 10 µL/min/mg. It also gave an inhibition [18] of 9%, an inhibition [19] of 62% and an inhibition [20] of -5%. For the same molecule, the inhibition [21] was 23%, the inhibition (Homo sapiens) was 0% and the inhibition [22] was 5%. The inhibition [23] was -1%, the inhibition [24] was -9% and the inhibition [25] was 3%. The inhibition [26] was 30%, the inhibition (Rattus norvegicus [27]) was 41% and the inhibition [28] was 12%. The inhibition [29] was 7%, the inhibition [30] was 7% and the inhibition [31] was 0%. It also gave an inhibition [32] of 4%, an inhibition [33] of -2% and an inhibition [34] of 3%. The inhibition [35] was 15%, the inhibition [36] was 24% and the inhibition [37] was 26%. The inhibition [38] was 19%, the inhibition (Rattus norvegicus [39]) was 35% and the inhibition [40] was over 75%. It also gave an inhibition [41] of over 75% and an inhibition [42] of over 75%.
In the case of `N[C@H]1CC[C@H](Nc2cc(Nc3ccc(F)c(Cl)c3)n3nccc3n2)CC1`, the pKi [43] was 5.22, the Papp A→B [14] was 7.1 ×10⁻⁶ cm/s and the microsomal CLint [15] was 59 µL/min/mg. For the same molecule, the solubility [16] was 75 µg/mL (≈ 200 µM), the microsomal CLint [17] was under 10 µL/min/mg and the pIC50 [44] was 4.60. The pIC50 [45] was 4.85, the pIC50 [46] was 4.96 and the pIC50 [47] was under 4.00. It also gave a pIC50 [48] of 3.52, a pIC50 [49] of 5.52 and a pIC50 [50] of 4.64. For the same molecule, the pIC50 [51] was 5.89 and the pIC50 [52] was 7.26.
